Test results: PubChem BioAssay (NCI)
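GI50 is the concentration that inhibits growth by half. TGI denotes the concentration required for complete inhibition of growth.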

Key:
Assay in all cases: NCI anticancer screen, dose series, 384-well format
NCI-H522 lung = system: NCI-H522 lung
UACC-257 melanoma = system: UACC-257 melanoma
SK-OV-3 ovarian = system: SK-OV-3 ovarian
NCI-H226 lung = system: NCI-H226 lung
MDA-MB-468 breast = system: MDA-MB-468 breast
MCF7 breast = system: MCF7 breast
HL-60(TB) leukemia = system: HL-60(TB) leukemia
HT29 colon = system: HT29 colon
IGROV1 ovarian = system: IGROV1 ovarian
SF-268 CNS = system: SF-268 CNS
NCI-H460 NSCLC = system: NCI-H460 NSCLC
OVCAR-5 ovarian = system: OVCAR-5 ovarian
SF-295 CNS = system: SF-295 CNS
SK-MEL-5 melanoma = system: SK-MEL-5 melanoma
SF-539 CNS = system: SF-539 CNS
HCT-15 colon = system: HCT-15 colon
SK-MEL-28 melanoma = system: SK-MEL-28 melanoma
BT-549 breast = system: BT-549 breast
OVCAR-4 ovarian = system: OVCAR-4 ovarian
OVCAR-8 ovarian = system: OVCAR-8 ovarian
786-0 renal = system: 786-0 renal
T-47D breast = system: T-47D breast
UACC-62 melanoma = system: UACC-62 melanoma
MDA-MB-231 breast = system: MDA-MB-231 breast
SN12C renal = system: SN12C renal
RXF 393 renal = system: RXF 393 renal
SW-620 colon = system: SW-620 colon
HOP-92 NSCLC = system: HOP-92 NSCLC
DU-145 prostate = system: DU-145 prostate
U251 glioblastoma = system: U251 glioblastoma
MOLT-4 leukemia = system: MOLT-4 leukemia
SNB-75 CNS = system: SNB-75 CNS
MALME-3M melanoma = system: MALME-3M melanoma
HCT-116 colon = system: HCT-116 colon
MDA-MB-435 melanoma = system: MDA-MB-435 melanoma
K-562 leukemia = system: K-562 leukemia
SNB-19 CNS = system: SNB-19 CNS
SK-MEL-2 melanoma = system: SK-MEL-2 melanoma
A549 NSCLC = system: A549 NSCLC
PC-3 prostate = system: PC-3 prostate
HCC-2998 colon = system: HCC-2998 colon
A498 renal = system: A498 renal
SR leukemia = system: SR leukemia
ACHN renal = system: ACHN renal
RPMI-8226 leukemia = system: RPMI-8226 leukemia
COLO 205 colon = system: COLO 205 colon
KM12 colon = system: KM12 colon

**Q.** `C/C=C1\NC(=O)[C@H]2CSSCCC=C[C@H](CC(=O)N[C@H](C(C)C)C(=O)N2)OC(=O)[C@H](C(C)C)NC1=O` was tested. Which GI50 (NCI-H522 lung) did it give?
**A.** < 10 nM

**Q.** What about the TGI (NCI-H522 lung) of the same molecule?
**A.** < 10 nM

**Q.** And the GI50 (UACC-257 melanoma)?
**A.** < 10 nM

**Q.** What about the TGI (UACC-257 melanoma) of the same molecule?
**A.** < 10 nM

**Q.** What about the GI50 (SK-OV-3 ovarian) of the same molecule?
**A.** < 10 nM

**Q.** And the TGI (SK-OV-3 ovarian)?
**A.** < 10 nM

**Q.** And the GI50 (NCI-H226 lung)?
**A.** < 10 nM

**Q.** And the TGI (NCI-H226 lung)?
**A.** 19.2 nM

**Q.** And the GI50 (MDA-MB-468 breast)?
**A.** < 10 nM

**Q.** What about the TGI (MDA-MB-468 breast) of the same molecule?
**A.** < 10 nM

**Q.** And the GI50 (MCF7 breast)?
**A.** < 10 nM

**Q.** And the TGI (MCF7 breast)?
**A.** < 10 nM

**Q.** And the GI50 (HL-60(TB) leukemia)?
**A.** < 10 nM

**Q.** What about the TGI (HL-60(TB) leukemia) of the same molecule?
**A.** < 10 nM

**Q.** And the GI50 (HT29 colon)?
**A.** < 10 nM

**Q.** What about the TGI (HT29 colon) of the same molecule?
**A.** < 10 nM

**Q.** And the GI50 (IGROV1 ovarian)?
**A.** < 10 nM

**Q.** And the TGI (IGROV1 ovarian)?
**A.** < 10 nM

**Q.** What about the GI50 (SF-268 CNS) of the same molecule?
**A.** < 10 nM

**Q.** What about the TGI (SF-268 CNS) of the same molecule?
**A.** < 10 nM

**Q.** What about the GI50 (NCI-H460 NSCLC) of the same molecule?
**A.** < 10 nM

**Q.** And the TGI (NCI-H460 NSCLC)?
**A.** 10.1 nM

**Q.** And the GI50 (OVCAR-5 ovarian)?
**A.** < 10 nM

**Q.** And the TGI (OVCAR-5 ovarian)?
**A.** < 10 nM

**Q.** What about the GI50 (SF-295 CNS) of the same molecule?
**A.** < 10 nM

**Q.** What about the TGI (SF-295 CNS) of the same molecule?
**A.** < 10 nM

**Q.** What about the GI50 (SK-MEL-5 melanoma) of the same molecule?
**A.** < 10 nM

**Q.** And the TGI (SK-MEL-5 melanoma)?
**A.** < 10 nM

**Q.** And the GI50 (SF-539 CNS)?
**A.** < 10 nM

**Q.** And the TGI (SF-539 CNS)?
**A.** < 10 nM

**Q.** What about the GI50 (HCT-15 colon) of the same molecule?
**A.** 82.9 nM

**Q.** What about the TGI (HCT-15 colon) of the same molecule?
**A.** 806 nM

**Q.** What about the GI50 (SK-MEL-28 melanoma) of the same molecule?
**A.** < 10 nM

**Q.** What about the TGI (SK-MEL-28 melanoma) of the same molecule?
**A.** < 10 nM

**Q.** And the GI50 (BT-549 breast)?
**A.** < 10 nM

**Q.** What about the TGI (BT-549 breast) of the same molecule?
**A.** < 10 nM

**Q.** What about the GI50 (OVCAR-4 ovarian) of the same molecule?
**A.** < 10 nM

**Q.** And the TGI (OVCAR-4 ovarian)?
**A.** < 10 nM

**Q.** And the GI50 (OVCAR-8 ovarian)?
**A.** < 10 nM

**Q.** And the TGI (OVCAR-8 ovarian)?
**A.** < 10 nM

**Q.** And the GI50 ([…]-0 renal)?
**A.** < 10 nM

**Q.** And the TGI (786-0 renal)?
**A.** < 14.9 nM

**Q.** What about the GI50 (T-47D breast) of the same molecule?
**A.** < 10 nM

**Q.** What about the TGI (T-47D breast) of the same molecule?
**A.** < 10 nM

**Q.** What about the GI50 (UACC-62 melanoma) of the same molecule?
**A.** < 10 nM

**Q.** What about the TGI (UACC-62 melanoma) of the same molecule?
**A.** < 10 nM

**Q.** And the GI50 (MDA-MB-231 breast)?
**A.** < 10 nM

**Q.** And the TGI (MDA-MB-231 breast)?
**A.** < 10 nM

**Q.** What about the GI50 (SN12C renal) of the same molecule?
**A.** < 10 nM

**Q.** And the TGI (SN12C renal)?
**A.** < 10 nM

**Q.** And the GI50 (RXF 393 renal)?
**A.** < 10 nM

**Q.** What about the TGI (RXF 393 renal) of the same molecule?
**A.** < 10 nM

**Q.** What about the GI50 (SW-620 colon) of the same molecule?
**A.** < 10 nM

**Q.** And the TGI (SW-620 colon)?
**A.** < 10 nM

**Q.** What about the GI50 (HOP-92 NSCLC) of the same molecule?
**A.** < 10 nM

**Q.** And the TGI (HOP-92 NSCLC)?
**A.** < 10 nM

**Q.** And the GI50 (DU-145 prostate)?
**A.** < 10 nM

**Q.** What about the TGI (DU-145 prostate) of the same molecule?
**A.** < 10 nM

**Q.** And the GI50 (U251 glioblastoma)?
**A.** < 10 nM

**Q.** What about the TGI (U251 glioblastoma) of the same molecule?
**A.** < 10 nM

**Q.** What about the GI50 (MOLT-4 leukemia) of the same molecule?
**A.** < 10 nM

**Q.** What about the TGI (MOLT-4 leukemia) of the same molecule?
**A.** < 10 nM

**Q.** And the GI50 (SNB-75 CNS)?
**A.** < 10 nM

**Q.** What about the TGI (SNB-75 CNS) of the same molecule?
**A.** < 10 nM

**Q.** What about the GI50 (MALME-3M melanoma) of the same molecule?
**A.** < 10 nM

**Q.** What about the TGI (MALME-3M melanoma) of the same molecule?
**A.** < 10 nM

**Q.** And the GI50 (HCT-116 colon)?
**A.** < 10 nM

**Q.** And the TGI (HCT-116 colon)?
**A.** < 10 nM

**Q.** And the GI50 (MDA-MB-435 melanoma)?
**A.** < 10 nM

**Q.** What about the TGI (MDA-MB-435 melanoma) of the same molecule?
**A.** < 10 nM

**Q.** What about the GI50 (K-562 leukemia) of the same molecule?
**A.** < 10 nM

**Q.** What about the TGI (K-562 leukemia) of the same molecule?
**A.** < 10 nM

**Q.** And the GI50 (SNB-19 CNS)?
**A.** < 10 nM

**Q.** What about the TGI (SNB-19 CNS) of the same molecule?
**A.** < 10 nM

**Q.** And the GI50 (SK-MEL-2 melanoma)?
**A.** < 10 nM

**Q.** And the TGI (SK-MEL-2 melanoma)?
**A.** < 10 nM

**Q.** What about the GI50 (A549 NSCLC) of the same molecule?
**A.** < 10 nM

**Q.** What about the TGI (A549 NSCLC) of the same molecule?
**A.** < 10 nM

**Q.** And the GI50 (PC-3 prostate)?
**A.** < 10 nM

**Q.** And the TGI (PC-3 prostate)?
**A.** < 10 nM

**Q.** What about the GI50 (HCC-2998 colon) of the same molecule?
**A.** < 10 nM

**Q.** What about the TGI (HCC-2998 colon) of the same molecule?
**A.** < 10 nM

**Q.** And the GI50 (A498 renal)?
**A.** < 10 nM

**Q.** What about the TGI (A498 renal) of the same molecule?
**A.** < 10 nM

**Q.** And the GI50 (SR leukemia)?
**A.** < 10 nM

**Q.** And the TGI (SR leukemia)?
**A.** < 10 nM

**Q.** And the GI50 (ACHN renal)?
**A.** < 11.9 nM

**Q.** And the TGI (ACHN renal)?
**A.** 23.3 nM

**Q.** And the GI50 (RPMI-8226 leukemia)?
**A.** < 10 nM

**Q.** And the TGI (RPMI-8226 leukemia)?
**A.** < 10 nM

**Q.** What about the GI50 (COLO 205 colon) of the same molecule?
**A.** < 10 nM

**Q.** What about the TGI (COLO 205 colon) of the same molecule?
**A.** < 10 nM

**Q.** What about the GI50 (KM12 colon) of the same molecule?
**A.** < 10 nM

**Q.** What about the TGI (KM12 colon) of the same molecule?
**A.** < 10 nM
